Reference: patent US20050182122A1, “Method of treating abnormal cell growth using indolinone compounds” (priority 2003, published 2005)
Values joined by “and” are separate entries in the source; they are usually repeats but may differ in a detail not shown here. Equal entries are not always repeated.

How the values were obtained:
[1] = test system: metastatic renal cell carcinoma (RCC); experiment: Example 1: metastatic renal cell carcinoma patients, best response by RECIST; assay type: in vivo, human
Excerpt: (§1) Eligibility included measurable disease, ECOG performance status of 0 or 1, failure of one prior cytokine-based therapy due to disease progression or toxicity, and adequate cardiac function as defined by normal ejection fraction on MUGA or ECHO. Patients were excluded if they had significant cardiac events within the past 12 months or received more than one prior cytokine regimen.

[2] = Example 1: metastatic renal cell carcinoma patients, adverse events; assay type: in vivo, human
Excerpt: as §1

primary or secondary AML = experiment: Example 2: AML patients, clinical activity by WHO criteria; assay type: in vivo, human; set-up: key to Best Response: NE: not evaluated; PR: partial response; SD: stable disease; PD: Progressive Disease; conditions: for Best Response: AML, one line per patient
Experimental: (§2) Constitutively activating mutations of the receptor FLT3 are present in approximately 30% of patients with AML and correlate with poor prognosis. […] Two dose levels (50 and 75 mg) and 2 schedules (Group A: 4 weeks of treatment followed by a 14 day rest period; and Group B: 4 weeks of treatment followed by a 7 day rest period) were evaluated in 3 cohorts of patients. Flt3 genotyping for ITD and D835 mutations was performed to enable retrospective stratification. Correlative laboratory studies to assess inhibition of target phosphorylation, and modulation of signaling pathways regulating apoptosis and proliferation were performed by Western blot and immunohistochemistry analyses and FL expression and IHC were conducted.

[3] = Example 2: AML patients, toxicities; assay type: in vivo, human
Experimental: as §2

[4] = Example 3: solid tumor patients, dose limiting toxicities; assay type: in vivo, human
Excerpt: (§3) The patients were characterized as follows: 15 male, 13 female; age range 33-78 years; median age 55 years; median PS 0; WHO PS, 0 (22 patients), 1 (3 patients), 2 (3 patients). The number of pretreatment regimens ranged from 0 to 9, with a median of 2. The tumors types (number of patients) were: renal cell carcinoma (4); neuroendocrine tumors (4); colorectal cancer (3); non-small cell lung cancer (2); mesotheliomas (2); uterine carcinoma (2); breast cancer (2); pancreas (2); angiosarcoma (2); esophagus (1); undifferentiated carcinoma of nasopharynx (1); parotid adenocarcinoma (1); melanoma (1); gastrointestinal stromal tumor (1). […] All other trials were dosed with flat doses (i.e., mg). All dosage amounts are free-base equivalents. A plus symbol (+) following the number of cycles indicates the patient was still on study at the date the data were summarized.

solid tumors = experiment: Example 3: solid tumor patients, antitumor activity; assay type: in vivo, human
Excerpt: as §3

blood/plasma half life = assay type: in vivo
Experimental: Administration of the compound of formula 1, or its active metabolite 2, in an effective dosing regimen, must take into account the long blood/plasma half lives of these two compounds, approximately 40 and 80 hours, respectively, as well as their safety profiles. Thus, there is a need for safe and therapeutically effective dosing regimens for administering the compounds of formula 1 and 2 to a mammal, including a human, for treating abnormal cell growth, such as cancer.

FLT3-ITD xenograft tumor = FLT3-ITD xenograft tumor model; assay type: in vivo; conditions: pre-clinical experiments
[5] = test system: bone marrow engraftment model; experiment: bone marrow engraftment model; assay type: in vivo; conditions: pre-clinical experiments
FLT3 = experiment: Example 2: AML patients, FLT3 phosphorylation and expression (Western blot, immunohistochemistry); assay type: in vivo, human
Experimental: as §2

[6] = 63 metastatic RCC patients, 50 mg daily orally 4 weeks, 2-week rest
[7] = preliminary safety data N=44, 50 mg daily 4 weeks/2-week rest, mostly grades 1 and 2
[8] = preliminary safety data N=44, without signs of pancreatitis
[9] = 15 AML patients, 50 or 75 mg daily
[10] = 15 AML patients, 50 or 75 mg daily, 4 weeks treatment, 14 or 7 day rest, mainly grade 1-2
[11] = all dosing schedules, 23 evaluable

## CCN(CC)CCNC(=O)c1c(C)[nH]c(/C=C2\C(=O)Nc3ccc(F)cc32)c1C [5-(5-fluoro-2-oxo-1,2-dihydroindol-(3Z)-ylidenemethyl)-2,4-dimethyl-1H-pyrrole-3-carboxylic acid (2-diethylaminoethyl)-amide]
[1]; 63 metastatic RCC patients
  taken off study for PD: Twelve
[1]; [6]
  Best response by RECIST: confirmed partial, patients: 16%
  Best response by RECIST: progression, patients: 27%
  Best response by RECIST: stable, patients: 41%
  reduction of unidimensional measurement of at least 30%, awaiting confirmation of response status, patients: 10%
[1]; of 10 patients with partial response, median follow-up of 4 months from start of therapy
  partial responders remaining progression free: 9
[1]; of 10 patients with partial response, progressed at 5 months
  partial responders who progressed: 1 patient
[2]; 63 metastatic RCC patients
  taken off study for toxicity: 8 patients
[2]; preliminary safety data N=44
  Grade 3 event: anemia: 5%
  Grade 3 event: leukocytopenia: 5%
  Grade 3 event: lymphopenia: 32%
  Grade 3 event: neutropenia: 9%
  grade 3 thrombocytopenia: no patients
[2]; [7]
  adverse event constipation, frequency: 34%
  adverse event diarrhea, frequency: 46%
  adverse event dyspepsia, frequency: 30%
  adverse event fatigue/asthenia, frequency: 67%
  adverse event nausea, frequency: 50%
  adverse event stomatitis, frequency: 43%
[2]; [8]
  Grade 3 event: elevated amylase: 9%
  Grade 3 event: elevated lipase: 23%
[2]; taken off the study
  decreases in left ventricular ejection fraction >20% without clinical symptoms: Two
Primary or secondary AML; [9]
  evidence of clinical activity of short duration by WHO criteria: 7 patients
  morphologic response (less than 5% blasts in bone marrow, absence of blasts in peripheral blood), number of patients: 1
  partial responses (reduction of blasts by more than 50% in blood and bone marrow), number of patients: 6
Primary or secondary AML; 50 mg daily, schedule 4/1 weeks treatment/rest
  Best Response: SD (3×) and PR (2×)
Primary or secondary AML; 50 mg daily, schedule 4/2 weeks treatment/rest
  Best Response: PD (3×) and PR (3×) and Morph. R
Primary or secondary AML; 75 mg daily, schedule 4/2 weeks treatment/rest
  Best Response: PR
Primary or secondary AML; of the 7 patients with clinical activity
  rebound of blasts during the treatment-free (rest) period, patients: 2
Primary or secondary AML; of the responding patients
  responding patients with mutated FLT3 (ITD or D835): Three
[3]; [9]
  Grade 3 drug related fatigue, patients: 20%
[3]; [10]
  toxicity: diarrhea: 13%
  toxicity: fatigue: 27%
  toxicity: nausea: 33%
  toxicity: vomiting: 13%
[3]; at 75 mg
  dose limiting toxicity, fatigue grade 4 (number): One
[4]; 50 mg daily patients
  patients with dose limiting toxicities at cycle 1: 2 of 9
[4]; 50 mg daily patients, cycle 1
  dose limiting toxicity grade 3 edema: 1 patient
  dose limiting toxicity grade 4 thrombocytopenia: 1 patient
[4]; 75 mg daily patients
  patients with dose limiting toxicities at cycle 1: 5 of 11
[4]; 75 mg daily patients, cycle 1
  dose limiting toxicity grade 3 asthenia: 3 patients
  dose limiting toxicity grade 3 hypertension: 1 patient
  dose limiting toxicity grade 5 tumor necrosis: 1 patient
[4]; 100 mg daily patients
  patients with dose limiting toxicities at cycle 1: 2 of 3
[4]; 100 mg daily patients, cycle 1
  dose limiting toxicity grade 3 asthenia: 1 patient
  dose limiting toxicity grade 3 hypertension: 1 patient
[4]; cycle 1
  course of asthenia: progressively from grade 1 at week 1 to grade 3-4 at week 4
[4]; doses greater than or equal to 50 mg, appeared during cycle 1
  main dose-limiting toxicity: Asthenia
[4]; human, in vivo
  rest period required for reversal of grade 3 asthenia: 2-4 week
[4]; the 150 mg daily patient
  dose limiting toxicity at cycle 1: grade 3 asthenia
Solid tumors; 50 mg Q2D, 3 patients
  Tumor Progression: 3
  Tumor Response (#): 0
  Tumor Stabilization (#): 0
Solid tumors; 50 mg QD
  Tumor Stabilization, Time: 8 months
Solid tumors; 50 mg QD, 6 patients
  Tumor Progression: 5
  Tumor Response (#): 0
  Tumor Stabilization (#): 1
Solid tumors; 75 mg QD, 9 patients
  Tumor Progression: 0
  Tumor Response (#): 3
  Tumor Stabilization (#): 2
Solid tumors; 75 mg QD, one value per patient
  Tumor Stabilization, Time: 4 months and 5 months
Solid tumors; 100 mg Q2D, 1 patient
  Tumor Progression: 0
  Tumor Response (#): 1
  Tumor Stabilization (#): 0
Solid tumors; 100 mg QD
  Tumor Stabilization, Time: 6 months
Solid tumors; 100 mg QD, 3 patients
  Tumor Progression: 0
  Tumor Response (#): 2
  Tumor Stabilization (#): 1
Solid tumors; 150 mg QD
  Tumor Stabilization, Time: 3 months
Solid tumors; 150 mg QD, 1 patient
  Tumor Progression: 0
  Tumor Response (#): 0
  Tumor Stabilization (#): 1
Solid tumors; [11]
  Tumor Progression, totals: 8/23
  Tumor Response (#), totals: 6/23
  Tumor Stabilization (#), totals: 5/23

## CCN(CC)CCNC(=O)c1c(C)[nH]c(/C=C2\C(=O)Nc3ccc(F)cc32)c1C [Compound 1, 5-(5-fluoro-2-oxo-1,2-dihydroindol-(3Z)-ylidenemethyl)-2,4-dimethyl-1H-pyrrole-3-carboxylic acid (2-diethylaminoethyl)-amide]
blood/plasma half life
  half-life: ~40 h
FLT3-ITD xenograft tumor
  efficacy in FLT3-ITD xenograft tumor model: dose-dependent efficacy
[5]
  efficacy in bone marrow engraftment model: dose-dependent efficacy
Primary or secondary AML; one patient with FLT3 ITD mutation, Group B (50 mg daily, 4 weeks treatment/7 day rest)
  duration of partial response: 4 month
[3]; 50 mg dose
  tolerability in advanced AML population: tolerable
FLT3; 50 mg dose
  target inhibition: consistently observed
FLT3; patient with FLT3 ITD mutation, Group B, consistent with decreasing blast counts
  time to decreased FLT3 protein expression: ≤ 8 days
FLT3; patient with FLT3 ITD mutation, Group B, similar in 2 other FLT3 mutant patients
  FLT3 phosphorylation after administration: inhibition of FLT3 phosphorylation

## CCNCCNC(=O)c1c(C)[nH]c(/C=C2\C(=O)Nc3ccc(F)cc32)c1C [Compound 2, 5-(5-fluoro-2-oxo-1,2-dihydroindol-(3Z)-ylidenemethyl)-2,4-dimethyl-1H-pyrrole-3-carboxylic acid (2-ethylaminoethyl)-amide]
blood/plasma half life
  half-life: ~80 h
